Test results as given in BindingDB's records for doi:10.1021/jm00040a004 (Glaxo Group Research, 1994).

Assay: In vitro kappa-opioid receptor agonist activity in isolated rabbit vas deferens assay

Row | Compound | IC50
1 | O=C(Cc1ccc(Cl)c(Cl)c1)N1CCc2occc2C1CN1CCCC1 (stereo not given) [2-(3,4-Dichloro-phenyl)-1-(4-pyrrolidin-1-ylmethyl-6,7-dihydro-4H-furo[3,2-c]pyridin-5-yl)-ethanone] | 15 nM
2 | O=C1CCN(CC2c3ccoc3CCN2C(=O)Cc2ccc(Cl)c(Cl)c2)C1 (stereo not given) [1-{5-[2-(3,4-Dichloro-phenyl)-acetyl]-4,5,6,7-tetrahydro-furo[3,2-c]pyridin-4-ylmethyl}-pyrrolidin-3-one] | 6 nM
3 | O=C(Cc1ccc(Cl)c(Cl)c1)N1CCc2c(O)cccc2C1CN1CCCC1 (stereo not given) | 0.11 nM
4 | CN(C)CC1c2ccoc2CCN1C(=O)Cc1ccc(Cl)c(Cl)c1 (stereo not given) [2-(3,4-Dichloro-phenyl)-1-(4-dimethylaminomethyl-6,7-dihydro-4H-furo[3,2-c]pyridin-5-yl)-ethanone] | 22 nM
5 | O=C(Cc1ccc(Cl)c(Cl)c1)N1CCc2occc2[C@@H]1CN1CC[C@H](O)C1 [2-(3,4-Dichloro-phenyl)-1-[(R)-4-((S)-3-hydroxy-pyrrolidin-1-ylmethyl)-6,7-dihydro-4H-furo[3,2-c]pyridin-5-yl]-ethanone] | 1.1 nM
6 | O=C(Cc1ccc(Cl)c(Cl)c1)N1CCc2occc2C1CN1CC=CCC1 (stereo not given) [2-(3,4-Dichloro-phenyl)-1-[4-(3,6-dihydro-2H-pyridin-1-ylmethyl)-6,7-dihydro-4H-furo[3,2-c]pyridin-5-yl]-ethanone] | 1.4 nM
7 | O=C(Cc1ccc(Cl)c(Cl)c1)N1CCc2occc2C1CN1CCC(O)C1 (stereo not given) [2-(3,4-Dichloro-phenyl)-1-[4-(3-hydroxy-pyrrolidin-1-ylmethyl)-6,7-dihydro-4H-furo[3,2-c]pyridin-5-yl]-ethanone] | 2.7 nM
8 | O=C(Cc1ccc(Cl)c(Cl)c1)N1CCc2occc2[C@H]1CN1CC[C@@H](O)C1 [(RS)-2-(3,4-Dichloro-phenyl)-1-[4-(3-hydroxy-pyrrolidin-1-ylmethyl)-6,7-dihydro-4H-furo[3,2-c]pyridin-5-yl]-ethanone(GR 91272)] | 3.4 nM
9 | Cc1cc2c(o1)CCN(C(=O)Cc1ccc(Cl)c(Cl)c1)C2CN1CCC(O)C1 (stereo not given) [2-(3,4-Dichloro-phenyl)-1-[4-(3-hydroxy-pyrrolidin-1-ylmethyl)-2-methyl-6,7-dihydro-4H-furo[3,2-c]pyridin-5-yl]-ethanone] | 0.39 nM
10 | O=C(Cc1ccc(Cl)c(Cl)c1)N1CCc2c(O)cccc2C1CN1CCC(O)C1 (stereo not given) [2-(3,4-Dichloro-phenyl)-1-[5-hydroxy-1-(3-hydroxy-pyrrolidin-1-ylmethyl)-3,4-dihydro-1H-isoquinolin-2-yl]-ethanone] | 3.8 nM
